We go through eight molecules from patent US8927721B2, “Naphthyridine derivative” (Shionogi & Co., Ltd., priority 2010, dated 2015).

The target of one data set is T1, Recombinant human BACE1 (Homo sapiens, UniProt P56817).
T1 construct: purchased R&D Systems
Description: Assay of BACE1 inhibitory activity. Type of data set: biochemical. The conditions noted are these: Recombinant human BACE1, 30° C., 3 hours, pH 5.0; read-out: IC50 (50% inhibitory concentration against the enzymatic activity). The protocol:
48.5 μL of substrate peptide solution (Biotin-XSEVNLDAEFRHDSGC-Eu: X=ε-amino-n-capronic acid, Eu=Europium cryptate) was added to each well of 96-hole half-area plate (a black plate: Costar), and after addition of 0.5 μl of the compound of the present invention (N,N′-dimethylformamide solution) and 1 μl of Recombinant human BACE1(R&D Systems), the reaction mixture was incubated at 30° C. for 3 hours. The substrate peptide was synthesized by reacting Cryptate TBPCOOH mono SMP (CIS bio international) with Biotin-XSEVNLDAEFRHDSGC (Peptide Institute, Inc.). The final concentrations of the substrate peptide and Recombinant human BACE1 were adjusted to 18 nmol/L and 7.4 nmol/L, respectively, and the reaction was performed in sodium acetate buffer (50 mmol/L sodium acetate, pH 5.0, 0.008% Triton X-100). After the incubation for reaction, 50 μl of 8.0 μg/ml Streptavidin-XL665 (CIS bio international) dissolved in phosphate buffer (150 mmol/L K2HPO4—KH2PO4, pH 7.0, 0.008% Triton X-100, 0.8 mol/L KF) was added to each well and left stand at 30° C. for 1 hour. After then, fluorescence intensity was measured (excitation wavelength: 320 nm, measuring wavelength: 620 nm and 665 nm) using Wallac 1420 multilabel counter (Perkin Elmer life sciences). Enzymatic activity was determined from counting ratio of each wavelength (10,000×Count 665/Count 620) and 50% inhibitory concentration against the enzymatic activity (IC50) was calculated.

In the next data set the target is T2, CYP1A2 (Homo sapiens, UniProt P05177).
T2 construct: enzyme, pooled human hepatic microsome 0.2 mg protein/mL; from tissue; host or cells: pooled human hepatic microsome
T2 sequence (P05177 1-516): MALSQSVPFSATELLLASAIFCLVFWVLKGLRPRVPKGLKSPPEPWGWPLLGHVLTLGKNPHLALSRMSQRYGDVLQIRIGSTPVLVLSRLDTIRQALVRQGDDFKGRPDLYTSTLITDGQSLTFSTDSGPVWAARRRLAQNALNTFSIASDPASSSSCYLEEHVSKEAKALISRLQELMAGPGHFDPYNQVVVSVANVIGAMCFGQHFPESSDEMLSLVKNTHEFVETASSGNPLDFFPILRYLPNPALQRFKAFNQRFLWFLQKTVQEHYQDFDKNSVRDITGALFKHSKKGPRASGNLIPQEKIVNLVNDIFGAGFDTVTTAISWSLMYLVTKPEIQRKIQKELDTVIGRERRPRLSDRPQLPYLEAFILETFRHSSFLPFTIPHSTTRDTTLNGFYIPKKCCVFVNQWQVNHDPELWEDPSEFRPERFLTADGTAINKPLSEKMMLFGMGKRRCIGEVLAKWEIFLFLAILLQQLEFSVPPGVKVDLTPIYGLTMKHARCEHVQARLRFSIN
Briefly: CYP inhibition test (CYP1A2). Particulars: pooled human hepatic microsome, 7-ethoxyresorufin O-deethylation. The data set is classed as in vitro ADME. The source says: (§1) Using commercially available pooled human hepatic microsome, and employing, as markers, 7-ethoxyresorufin O-deethylation (CYP1A2), tolbutamide methyl-hydroxylation (CYP2C9), mephenyloin 4′-hydroxylation (CYP2C19), dextromethorphan O-demethylation (CYP2D6), and terfenedine hydroxylation (CYP3A4) as typical substrate metabolism reactions of human main five CYP enzyme forms (CYP1A2, 2C9, 2C19, 2D6, 3A4), an inhibitory degree of each metabolite production amount by a compound of the present invention was assessed. […] After the centrifugation at 3000 rpm for 15 minutes, resorufin (CYP1A2 metabolite) in the supernatant was quantified by a multi-label counter and hydroxytolbutamide (CYP2C9 metabolite), 4′-hydroxymephenyloin (CYP2C19 metabolite), dextrorphan (CYP2D6 metabolite), and terfenadine alcohol metabolite (CYP3A4 metabolite) were quantified by LC/MS/MS. Addition of only DMSO being a solvent dissolving a compound to a reaction system was adopted as a control (100%), remaining activity (%) was calculated and IC50 was calculated by reverse presumption by a logistic model using a concentration and an inhibition rate.

In data set [1] the target is T3, CYP3A4 (Homo sapiens, UniProt P08684). Briefly: CYP inhibition test (CYP3A4). Type of data set: in vitro ADME. More on the design: enzyme, pooled human hepatic microsome 0.2 mg protein/mL; from tissue; host or cells: pooled human hepatic microsome. The conditions noted are these: pooled human hepatic microsome, terfenedine hydroxylation.
From the text: as §1

The target in another data set is T4, CYP2D6 (Homo sapiens, UniProt P10635).
T4 construct: enzyme, pooled human hepatic microsome 0.2 mg protein/mL; from tissue; host or cells: pooled human hepatic microsome
Briefly: CYP inhibition test (CYP2D6). Type of data set: in vitro ADME. The conditions noted are these: pooled human hepatic microsome, dextromethorphan O-demethylation.
From the text: as §1

In the next data set the target is T5, CYP2C19 (Homo sapiens, UniProt P33261).
T5 construct: enzyme, pooled human hepatic microsome 0.2 mg protein/mL; from tissue; host or cells: pooled human hepatic microsome
Description: CYP inhibition test (CYP2C19). Particulars: pooled human hepatic microsome, mephenyloin 4′-hydroxylation. The data set is classed as in vitro ADME.
From the text: as §1

Another data set has as its target T6, CYP2C9 (Homo sapiens, UniProt P11712).
T6 construct: enzyme, pooled human hepatic microsome 0.2 mg protein/mL; from tissue; host or cells: pooled human hepatic microsome
Description: CYP inhibition test (CYP2C9). Type of data set: in vitro ADME. Particulars: pooled human hepatic microsome, tolbutamide methyl-hydroxylation.
From the text: as §1

Data set [2] has as its system Aβ production in Neuroblastoma SH-SY5Y cells (SH/APPwt). Briefly: Measurement of β-amyloid (Aβ) production inhibiting effect in cell. Type of data set: cell-based. The conditions noted are these: Homo sapiens, 24 hours, Amyloid β1-40 HTRF, read-out: IC50 (amount needed to inhibit Aβ production by 50%). The protocol: Neuroblastoma SH-SY5Y cells (SH/APPwt) with human wild-type 13-APP excessively expressed therein were prepared at 8×10^5 cells/mL, and 150 μl portions thereof were inoculated into each well of a 96-well culture plate (Falcon). The cells were cultured for 2 hours at 37° C. in a 5% gaseous carbon dioxide incubator. Then, a solution which have been preliminarily prepared by adding and suspending the compound of the present invention (DMSO (dimethyl sulfoxide) solution) so as to be 2 μl/50 μl medium was added to the cell sap. Namely, the final DMSO concentration was 1%, and the amount of the cell culture was 200 μl. After the incubation was performed for 24 hours from the addition of the test compound, 100 μl of the culture supernatant was collected from each fraction. The amount of the Aβ in each fraction was measured.
The Aβ amount was measured as follows. 10 μl of a homogeneous time resolved fluorescence (HTRF) measurement reagent (Amyloid β1-40 peptide; IBA Molecular Holding, S.A.) and 10 μl of the culture supernatant were put into a 384-well half area microplate (black microplate, Costar) and mixed with each other, and then left standing overnight at 4° C. while the light was shielded. Then, the fluorescence intensity (excitation wavelength: 337 nm, measurement wavelength: 620 nm and 665 nm) was measured with Wallac 1420 multilabel counter (Perkin Elmer life sciences). The Aβ amount was determined from the count rate at each measurement wavelength (10000×Count 665/Count 620), and the amount needed to inhibit A6 production by 50% (IC50) was calculated from at least six different dosages.

Data set [3] has as its target T3, CYP3A4. Briefly: CYP3A4 fluorescent MBI test. The data set is classed as in vitro ADME. More on the design: host or cells: Escherichia coli. Particulars: pre-reaction time 0 or 30 minutes, substrate 7-BFC. The protocol:
The CYP3A4 fluorescent MBI test is a test of investigating enhancement of CYP3A4 inhibition of the compound of the present invention by a metabolism reaction. 7-benzyloxytrifluoromethylcoumarin (7-BFC) is debenzylated by the CYP3A4 enzyme (enzyme expressed in Escherichia coli) and a metabolite, 7-hydroxytrifluoromethylcoumarin (7-HFC) which emits fluorescent light is produced. The test is performed using 7-HFC production reaction as an index.
The reaction conditions are as follows: substrate, 5.6 μmol/L 7-BFC: pre-reaction time, 0 or 30 minutes; reaction time, 15 minutes; reaction temperature, 25° C. […]
An enzyme in a K-Pi buffer (pH 7.4) and the compound of the present invention solution as a pre-reaction solution were added to a 96-well plate at the composition of the pre-reaction, a part of it was transferred to another 96-well plate so that it was 1/10 diluted by a substrate in a K-Pi buffer, NADPH as a co-factor was added to initiate a reaction as an index (without preincubation) and, after a predetermined time of a reaction, acetonitrile/0.5 mol/L Tris (trishydroxyaminomethane)=4/1 was added to stop the reaction. […] For the plate on which each index reaction had been performed, a fluorescent value of 7-HFC which is a metabolite was measured with a fluorescent plate reader. […]

The nature of data set [4]: Metabolism stability test. The conditions noted are these: human liver microsomes 0.5 mg protein/mL, 37° C., 30 minutes, NADPH. Type of data set: in vitro ADME. The protocol: Using a commercially available pooled human hepatic microsomes, a compound of the present invention is reacted for a constant time, a remaining rate is calculated by comparing a reacted sample and an unreacted sample, thereby, a degree of metabolism in liver of the compound of the present invention is assessed.
A reaction is performed (oxidative reaction) at 37° C. for 0 minute or 30 minutes in the presence of 1 mmol/L NADPH in 0.2 mL of a buffer (50 mmol/L Tris-HCl pH 7.4, 150 mmol/L potassium chloride, 10 mmol/L magnesium chloride) containing 0.5 mg protein/mL of human liver microsomes. After the reaction, 50 μL of the reaction solution is added to 100 μL of a methanol/acetonitrile=1/1 (v/v), mixed and centrifuged at 3000 rpm for 15 minutes. The compound of the present invention in the supernatant is quantified by LC/MS/MS, and a remaining amount of the compound of the present invention after the reaction is calculated, letting a compound amount at 0 minute reaction time to be 100%.
On the technique in general: Liver microsomes are a subcellular fraction often used to study metabolism.

A short description of data set [5]: Solubility test (turbidity, JP-I, JP-II). Type of data set: physicochemical. Particulars: kinetic from dmso stock, turbidity after 4 hours, 2% DMSO. The protocol:
A 2-fold dilution series (12 points) of a 10 mM solution of a compound of the present invention in DMSO was added to a medium (JP-I, JP-II) (2%), and solubility was assessed by 3 stages (High; >40 μM, Medium; 3-40 μM, Low; <3 μM) from a turbidity after 4 hours.

T1 sequence (P56817 46-501): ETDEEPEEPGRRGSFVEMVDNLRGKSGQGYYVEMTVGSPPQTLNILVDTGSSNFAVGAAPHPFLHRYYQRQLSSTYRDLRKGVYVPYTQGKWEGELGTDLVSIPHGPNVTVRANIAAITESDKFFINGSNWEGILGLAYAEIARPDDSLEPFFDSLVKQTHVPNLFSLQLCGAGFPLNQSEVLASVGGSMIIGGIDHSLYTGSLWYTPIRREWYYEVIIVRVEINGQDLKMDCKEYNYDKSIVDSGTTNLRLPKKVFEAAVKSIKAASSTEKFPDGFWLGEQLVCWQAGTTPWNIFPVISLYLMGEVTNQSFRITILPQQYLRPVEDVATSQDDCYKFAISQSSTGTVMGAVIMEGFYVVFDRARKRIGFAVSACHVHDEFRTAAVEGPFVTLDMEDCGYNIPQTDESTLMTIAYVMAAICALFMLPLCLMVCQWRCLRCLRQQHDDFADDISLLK
T3 sequence (P08684 whole entry): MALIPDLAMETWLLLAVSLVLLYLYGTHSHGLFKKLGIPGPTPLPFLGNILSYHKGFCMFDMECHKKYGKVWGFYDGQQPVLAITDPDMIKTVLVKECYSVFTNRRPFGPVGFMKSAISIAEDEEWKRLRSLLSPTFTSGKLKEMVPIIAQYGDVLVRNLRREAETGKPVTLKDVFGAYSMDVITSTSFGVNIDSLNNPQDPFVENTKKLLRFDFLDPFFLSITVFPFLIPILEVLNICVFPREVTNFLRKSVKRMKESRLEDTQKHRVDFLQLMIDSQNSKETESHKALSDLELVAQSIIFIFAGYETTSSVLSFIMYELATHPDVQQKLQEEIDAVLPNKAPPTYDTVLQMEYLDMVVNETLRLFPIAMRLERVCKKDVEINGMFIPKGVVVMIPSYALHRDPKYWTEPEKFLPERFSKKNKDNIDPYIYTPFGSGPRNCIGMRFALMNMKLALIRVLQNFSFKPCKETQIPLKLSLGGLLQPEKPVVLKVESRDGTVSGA
T5 sequence (P33261 whole entry): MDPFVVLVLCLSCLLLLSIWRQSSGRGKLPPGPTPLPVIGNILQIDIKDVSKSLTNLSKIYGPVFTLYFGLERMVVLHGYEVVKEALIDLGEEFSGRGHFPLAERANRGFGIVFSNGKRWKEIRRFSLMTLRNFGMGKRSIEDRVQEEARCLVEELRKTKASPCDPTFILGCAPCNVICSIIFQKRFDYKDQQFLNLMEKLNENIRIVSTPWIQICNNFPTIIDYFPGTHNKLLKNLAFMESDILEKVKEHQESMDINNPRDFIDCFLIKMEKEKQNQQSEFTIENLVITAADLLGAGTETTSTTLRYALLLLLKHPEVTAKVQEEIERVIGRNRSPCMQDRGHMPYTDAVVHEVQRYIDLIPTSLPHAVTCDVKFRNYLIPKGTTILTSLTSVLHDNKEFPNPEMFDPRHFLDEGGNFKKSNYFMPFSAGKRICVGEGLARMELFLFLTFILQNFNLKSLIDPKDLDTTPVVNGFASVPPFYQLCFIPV
T4 sequence (P10635 whole entry): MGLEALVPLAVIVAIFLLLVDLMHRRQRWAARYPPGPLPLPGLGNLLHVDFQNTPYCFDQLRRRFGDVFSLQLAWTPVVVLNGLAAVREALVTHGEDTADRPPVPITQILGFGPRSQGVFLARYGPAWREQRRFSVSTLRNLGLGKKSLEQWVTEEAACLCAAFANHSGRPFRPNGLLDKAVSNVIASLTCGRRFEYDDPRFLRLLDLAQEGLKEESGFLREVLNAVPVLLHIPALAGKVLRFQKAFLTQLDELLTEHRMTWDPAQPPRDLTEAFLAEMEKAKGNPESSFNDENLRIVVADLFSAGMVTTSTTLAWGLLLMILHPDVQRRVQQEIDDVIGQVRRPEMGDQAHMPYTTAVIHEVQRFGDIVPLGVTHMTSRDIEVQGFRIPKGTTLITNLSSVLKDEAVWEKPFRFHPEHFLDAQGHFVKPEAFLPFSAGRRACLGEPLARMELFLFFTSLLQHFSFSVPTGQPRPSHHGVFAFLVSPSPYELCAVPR
T6 sequence (P11712 whole entry): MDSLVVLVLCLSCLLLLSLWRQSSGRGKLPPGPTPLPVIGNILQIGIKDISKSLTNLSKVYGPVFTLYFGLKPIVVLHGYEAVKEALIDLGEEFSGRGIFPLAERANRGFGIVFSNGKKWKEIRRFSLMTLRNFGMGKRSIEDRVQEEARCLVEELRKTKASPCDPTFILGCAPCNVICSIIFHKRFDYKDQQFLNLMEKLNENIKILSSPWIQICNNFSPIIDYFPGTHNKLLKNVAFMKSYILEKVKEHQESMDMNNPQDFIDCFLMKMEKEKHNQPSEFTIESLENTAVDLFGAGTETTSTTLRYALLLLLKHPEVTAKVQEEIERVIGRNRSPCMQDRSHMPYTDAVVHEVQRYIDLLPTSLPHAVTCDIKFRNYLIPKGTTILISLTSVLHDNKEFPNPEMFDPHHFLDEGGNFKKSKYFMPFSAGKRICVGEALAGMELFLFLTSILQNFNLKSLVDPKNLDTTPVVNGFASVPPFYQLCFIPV

Consider `CC1(c2cc(NC(=O)c3ncc(F)cc3F)ccc2F)Cc2ccncc2C(N)=N1` (stereo not drawn) [Compound I-2], for which the IC50 on Recombinant human BACE1 was no more than 1000 nM; against CYP1A2, greater than 20000 nM; on CYP3A4 [1] it was greater than 20000 nM; against CYP2D6, greater than 20000 nM; against CYP2C19, greater than 20000 nM; against CYP2C9, greater than 20000 nM.
As for `COCC#CC(=O)Nc1ccc(F)c(C2(C)Cc3cnccc3C(N)=N2)c1` (stereo not drawn) [Compound I-28], the IC50 (at Recombinant human BACE1; in data set [2]) was no more than 3000 nM throughout.
For the molecule `CC#CC(=O)Nc1ccc(F)c(C2(C)Cc3c(F)cncc3C(N)=N2)c1` (stereo not drawn) [Compound I-34], the IC50 at Recombinant human BACE1 was no more than 1000 nM; in data set [2], 20 nM.
Consider `CC1(c2cc(NC(=O)c3ccc(C#N)cn3)ccc2F)Cc2ncccc2C(N)=N1` (stereo not drawn) [Compound I-1], for which, at Recombinant human BACE1, the IC50 was determined as 54 nM. On CYP3A4 [3], the “CYP3A4 fluorescent MBI (difference between IC50 values without and with preincubation)” value is on record as “(−) (when the difference is 3 μM or less, this was defined as (−))”.
As to `CC1(c2cc(NC(=O)C#Cc3ccccc3)ccc2F)Cc2cnccc2C(N)=N1` (stereo not drawn) [Compound I-30], the IC50 on Recombinant human BACE1 came out at 147 nM; in [2], 46 nM.
Turning to `CC1(c2cc(NC(=O)c3ccc(C#N)cn3)ccc2F)Cc2ncc(F)cc2C(N)=N1` (stereo not drawn) [Compound I-7], the IC50 was no more than 1000 nM on Recombinant human BACE1 and 2 nM in [2].
For the molecule `CC1(c2cc(NC(=O)c3ccc(C#N)cn3)ccc2F)Cc2cnccc2C(N)=N1` (stereo not drawn) [Compound I-5], the IC50 at Recombinant human BACE1 was no more than 1000 nM. The “remaining amount after the reaction” value in data set [4] turned out to be 88%.
Take `CC1(c2cc(NC(=O)c3ccc(C#N)cn3)ccc2F)Cc2c(F)cncc2C(N)=N1` (stereo not drawn) [Compound I-9]: the IC50 on Recombinant human BACE1 was no more than 1000 nM. The solubility (usually the concentration that dissolves in the medium under given conditions) at 4 h in data set [5] (JP-I medium, pH 1.2, simulated gastric fluid, JP-I) is greater than 40 µM; in [5] (JP-II medium, pH 6.8, aqueous buffer, JP-II), greater than 40 µM.
